# Results reported in patent US20110212101A1, “MATERIALS AND METHODS FOR EXPLOITING SYNTHETIC LETHALITY IN MISMATCH REPAIR-DEFICIENT CANCERS” (priority 2007, published 2011).
# Where a SMILES comes first, the peptide text is derived from it. The star is where a group is joined. Cbz = O=C(OCc1ccccc1)*
# Tests used:
# POLG = conditions: cited from earlier work; for inhibition of POLG activity in vitro: extent of inhibition varies widely
# [1] = test system: POLB mRNA in MSH2 deficient and proficient cells; experiment: POLB mRNA by qRT-PCR after H2O2; type: cell-based, human; conditions: 100 μM H202, RNA isolated after 15 mins
# Protocol: Quantification of RNA expression was measured by real time RT-PCR. Total RNA was extracted from cells with Trizol (Invitrogen) according to manufacturer's instructions. Total RNA from patient biopsies was purified from 10 μm sections using the High Pure RNA Paraffin Kit (Roche Diagnostic Ltd). cDNA was synthesized using Omniscript Reverse Transcriptase System for RT-PCR (Qiagen) with oligo dT as per manufacturer's instructions. Assay-on-Demand primer/probe sets were purchased from Applied Biosystems (Foster City, Calif.). Real-Time qPCR was performed on the […] Fast Real-Time PCR System (Applied Biosystems), with endogenous control β-Actin. Standard curves were calculated for all reactions with serial dilutions of control Hec59+chr2 cells to calculate reaction efficiency. Gene expression was calculated relative to expression of β-Actin endogenous control, and adjusted relative to expression in control Hec59+chr2 cells. Samples were quantified in triplicate.
# [2] = test system: OGG1 expression in HeLa cells; experiment: Western blot for OGG1 expression; type: cell-based, human; conditions: POLB silenced cells; 50 μM MG132, lysates 18 hours later
# Protocol: (§1) Cell pellets were lysed in 20 mmol/L Tris (pH 8), 200 mmol/L NaCl, 1 mmol/L EDTA, 0.5% (v/v) NP40, 10% (v/v) glycerol, and protease inhibitors. Immunoprecipitations were performed by incubating Protein G beads (Sigma), 1-2 mg of precleared cell lysate and anti-POLB antibody (ab3181, Abcam; dilution 1:100) overnight at 4° C. Beads were subsequently washed three times in cold lysis buffer, after which 2× loading buffer was added and the samples were boiled for 5 min before SDS-PAGE. For western blotting, lysates were electrophoresed on Novex precast gels (Invitrogen) and immunoblotted using the following antibodies: anti-MSH2 (Ab-1, Calbiochem), anti-POLB (ab3181, Abcam), anti-MLH1 (ab9144, Abcam), anti-POLG (Novus), anti-PCNA (SC7907, Santa-Cruz), anti-Cytochrome C (Pharmagen) anti-OGG1 (NB100-106, Novus biologicals), anti-CHIP (ab39559, Abcam) and anti-β-tubulin, (T4026, Sigma). This was followed by incubation with anti-IgG-horseradish peroxidase and chemiluminescent detection (SuperSignal West Pico Chemiluminescent Substrate, Pierce). Immunoblotting for (1-tubulin was used as a loading control.
# [3] = test system: Hec59 and Hec59+chr2 cells; experiment: High-throughput compound inhibitor screen, CellTitre Glo viability; type: cell-based, human; conditions: library of 1120 compounds; viability after six days
# Protocol: (§2) Compound libraries were purchased from Prestwick Chemicals (Saffron Walden, Essex, UK). Validation experiments were carried out with Methotrexate (Biomol International L.P.) and Menadione and Partenolide (Prestwick chemicals). Cells were plated in 96-well plates. After 12 hr incubation, cells were exposed to compound or equimolar DMSO and re-treated every 48 hrs. Cell viability was measured six days later using the CellTitre Glo assay (Promega) according to the manufacturer's instructions. Validation of hit compounds was performed by clonogenic assays. Exponentially growing cells were seeded at various densities in six-well plates. Cells were treated with increasing concentrations of the compound. Cell medium was replaced every four days. After ten to fourteen days, cells were fixed in methanol, stained with crystal violet, and counted. The plating efficiencies were calculated as the number of colonies divided by the number of cells plated for each compound treatment. The surviving fraction (SF) for a given sample was calculated as the plating efficiencies for each compound treated cells divided by the plating efficiencies of DMSO treated cells.
# [4] = test system: Hec59 cells (MSH2 deficient); experiment: 8-OHdG ELISA on isolated DNA; type: cell-based, human; conditions: compound treatment for three days
# Protocol: (§3) Genomic DNA was extracted using the Qiamp DNA isolation kit (Qiagen) and digested with nuclease P1. Mitochondrial and nuclear DNA was extracted using the mitochondrial DNA isolation kit (ab65321, Abcam). A commercially available ELISA kit from Cell Biolabs was used to determine levels of 8-OHdG in isolated DNA. The assays were performed according to the manufacturer's instructions. The 8-OHdG standard (0.078-20 ng/ml) or 10 μg DNA from siRNA transfected cells was incubated with a 8-OHdG monoclonal antibody in a microtiter plate precoated with 8-OHdG.
# (§4) Addition of […] to replicate samples was followed by measurement of absorbance at 450 nm. Standard curves were calculated for all reactions with serial dilutions of 8-OHdG standard to calculate reaction efficiency. Samples were assayed in triplicate.
# [5] = test system: Hec59+chr2 cells (MSH2 proficient); experiment: 8-OHdG ELISA on isolated DNA; type: cell-based, human; conditions: compound treatment for three days
# Protocol: as §3, §4
# [6] = test system: reactive oxygen species (ROS); conditions: VK3 at 30 μM; leading to apoptosis; cited from earlier work
# HeLa cells = experiment: Clonogenic survival with methotrexate after MSH2 siRNA; type: cell-based, human; conditions: cells transfected with MSH2 siRNA vs siControl; continuous exposure 14 days
# Protocol: (§5) For clonogenic assays, exponentially growing cells were seeded at various densities in six-well plates. Cells were transfected with siRNA as before. Cell medium was replaced every four days. After ten to fourteen days, cells were fixed in methanol, stained with crystal violet, and counted. The plating efficiencies were calculated as the number of colonies divided by the number of cells plated for each siRNA transfection. The surviving fraction (SF) for a given sample was calculated as the plating efficiencies for each siRNA transfection divided by the plating efficiencies of siControl siRNA transfected cells. All transfections were carried out in triplicate.
# (§6) Compound libraries were purchased from Prestwick Chemicals (Saffron Walden, Essex, UK). […] Cell viability was measured six days later using the CellTitre Glo assay (Promega) according to the manufacturer's instructions. […] After ten to fourteen days, cells were fixed in methanol, stained with crystal violet, and counted. The plating efficiencies were calculated as the number of colonies divided by the number of cells plated for each compound treatment. The surviving fraction (SF) for a given sample was calculated as the plating efficiencies for each compound treated cells divided by the plating efficiencies of DMSO treated cells.
# Hec59+chr2 cells = experiment: as above; type: cell-based, human; conditions: cells transfected with MSH2 siRNA vs siControl; continuous exposure 14 days
# Protocol: as §5, §6
# [7] = test system: POLβ expression in Hec59 and Hec59+chr2 cells; experiment: Western blot for POLβ expression; type: cell-based, human; conditions: 72 hours after treatment with methotrexate
# Protocol: as §1
# Transfected cell pellets were lysed in 20 mmol/L Tris (pH 8), 200 mmol/L NaCl, 1 mmol/LEDTA, 0.5% (v/v) NP40, 10% (v/v) glycerol, and protease inhibitors. […]
# [8] = test system: Hec59 and Hec59+chr2 cells; experiment: Clonogenic assay with compounds; type: cell-based, human; conditions: folic acid added in concert with methotrexate; Hec59 MSH2 deficient cells; 14 days
# Protocol: as §2
# POLB = POLB (Rattus norvegicus, UniProt P06766); conditions: read-out: IC50 as POLB inhibitor; cited from earlier work
smiles,measurement,setting,value
CC(Cn1cnc2c(N)ncnc21)OCP(=O)(O)OP(=O)(O)OP(=O)(O)O (stereo in doubt) [tenofovir-DP],inhibition of POLG activity in vitro,POLG,inhibit POLG activity in vitro
OO [H202],POLB mRNA levels,[1],induced
Nc1ccn([C@@H]2CS[C@H](COP(=O)(O)OP(=O)(O)OP(=O)(O)O)O2)c(=O)n1 [Lamivudine-TP],inhibition of POLG activity in vitro,POLG,inhibit POLG activity in vitro
CC(C)C[C@@H](C=O)NC(=O)[C@H](CC(C)C)NC(=O)[C@H](CC(C)C)NC(=O)OCc1ccccc1 [MG132] (Cbz-Leu-Leu-Leu-aldehyde),OGG1 expression,[2],restored the expression of OGG1
"CC1=CC(=O)c2ccccc2C1=O [Menadione, 2-methylnaphthalene-1,4-dione]",selectivity for MSH2 deficient cells in high-throughput screen,[3],show selectivity for MSH2 deficient cells
same,8-OHdG accumulation,[4],increased significantly
same,8-OHdG accumulation,[5],did not increase
same,inhibition of POLG,POLG; VK3 at 30 μM,more than 80%
same,reactive oxygen species (ROS),[6],significant increase
"CN(Cc1cnc2nc(N)nc(N)c2n1)c1ccc(C(=O)N[C@@H](CCC(=O)O)C(=O)O)cc1 [Methotrexate, (S)-2-(4-(((2,4-diaminopteridin-6-yl)methyl)methylamino)benzamido)pentanedioic acid]",selectivity for MSH2 deficient cells in high-throughput screen,[3],show selectivity for MSH2 deficient cells
same,synthetic lethality with methotrexate (survival),HeLa cells,synthetically lethal
same,synthetic lethality with methotrexate (survival),Hec59+chr2 cells,synthetically lethal
same,8-OHdG accumulation,[4],increased significantly
same,8-OHdG accumulation,[5],did not increase
same,POLβ expression,[7],reduction of POLβ expression
Nc1ncnc2c1ncn2CCOCP(=O)(O)OP(=O)(O)OP(=O)(O)O [adefovir-diphosphate],inhibition of POLG activity in vitro,POLG,inhibit POLG activity in vitro
Nc1nc2ncc(CNc3ccc(C(=O)N[C@@H](CCC(=O)O)C(=O)O)cc3)nc2c(=O)[nH]1 [folic acid],rescue of methotrexate lethality,[8],in large part rescues the lethal phenotype
C/C(=C/CC[C@H](C)[C@@H]1CC[C@]2(C)C3=CC[C@H]4C(C)(C)C(=O)CC[C@]4(C)[C@H]3CC[C@@]12C)C(=O)O [masticadienonic acid],IC50,POLB,8 µM
Nc1ccn([C@H]2CC[C@@H](COP(=O)(O)OP(=O)(O)OP(=O)(O)O)O2)c(=O)n1 [zalcitabine-TP],inhibition of POLG activity in vitro,POLG,inhibit POLG activity in vitro
Cc1cn([C@H]2C[C@H](N=[N+]=[N-])[C@@H](COP(=O)(O)OP(=O)(O)OP(=O)(O)O)O2)c(=O)[nH]c1=O [zidovudine-TP],inhibition of POLG activity in vitro,POLG,inhibit POLG activity in vitro
